Measured values reported in patent US12145947B2, “Pyrimidine based modulators and uses thereof” (Quanta Therapeutics, Inc., priority 2022, dated 2024).

Assays:
[1] = molecular target: T1, GST-tagged KRAS-G12D (2-169) (Homo sapiens, UniProt P01116, G12D); test: Nucleotide exchange assay (NEA), SOS-mediated, HTRF, KRAS G12D; type: biochemical; settings: IC50 extracted at 30 min
T1 construct: GST-tagged KRAS-G12D (2-169, Reaction Biology, MSC-11-539); purchased Reaction Biology MSC-11-539 (KRAS G12D); MSC-11-502 (SOS1cat)
T1 sequence (P01116 2-169 isoform P01116-2 G12D): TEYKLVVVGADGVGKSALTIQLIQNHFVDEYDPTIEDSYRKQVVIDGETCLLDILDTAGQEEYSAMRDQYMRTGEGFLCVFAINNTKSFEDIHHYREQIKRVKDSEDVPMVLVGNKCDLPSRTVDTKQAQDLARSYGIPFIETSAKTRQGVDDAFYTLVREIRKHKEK
Description: This activity is tightly regulated by GTPase activating proteins (GAPs) and guanine nucleotide exchange factors (GEFs). GEFs, such as SOS1/2, activate Ras proteins by exchanging GDP for GTP, thus returning Ras to its active conformation (Simanshu, Nissley, & McCormick, 2017). […] Homogenous time resolved fluorescence (HTRF) was used to detect SOS-mediated binding of a fluorescent GTP analog, GTP-DY-647P1 (Jena Biosciences NU-820-647P1) to GST-tagged KRAS-G12D (2-169, Reaction Biology, MSC-11-539) or to GST-tagged KRAS-G12V (2-169, Reaction Biology, MSC-11-540).
GST-tagged KRAS-G12D (2-169) and anti-GST MAb Tb Cryptate Gold (CisBio 61GSTTLB) were diluted into assay buffer (20 mM HEPES, pH 7.3, 150 mM NaCl, 5 mM MgCl2, 0.05% BSA 0.0025% NP40, 1 mM DTT) to prepare a 2.5× donor solution. 5× compound was added to the protein mixture and incubated for 1 h at RT. 2.5× acceptor solution containing SOSIcat (564-1049, Reaction Biology MSC-11-502) and GTP-DY-647P1 were then added to the donor KRAS mixture such that the final concentration of the reaction contained 5 nM GST-tagged KRAS-G12D (2-169), 20 nM SOScat, and 150 nM GTP. The reaction was monitored using at RT with the Envision multimode plate reader (Ex/Em 337/665, […]) up to 90 minutes at 5 minute intervals. To monitor KRAS-G12V Sos-mediated nucleotide exchange, 80 nM SOS was added to reaction instead of 20 nM. All other components were the same as previously described. Data was blanked to reactions without SOS1 and % inhibition was calculated such that DMSO only=0% and blank=100%. Curve fitting was done using a 4 parameter fit. Reported IC50 values were extracted at 30 min and 90 min for the KRAS-G12D and KRAS-G12V assays, respectively.
Curve fitting was done using a 4 parameter fit. NEA KRAS G12D IC50 (uM) values of selected compounds are depicted in Table 2 with compounds having a value <0.01 uM as ++++; >0.01 uM to 0.1 uM as +++; >0.1 uM to 1 uM as ++; >1 uM to 20 uM as +; and >20 uM as NA.

KRAS G12D/RAF1 = molecular target: T2, KRAS G12D/RAF1 (Homo sapiens, UniProt P01116, G12D); test: Protein-protein interaction (PPI) HTRF assay KRAS G12D/RAF1; type: binding
T2 construct: His6-MBP (N, cleaved yes); made in house; host or cells: E. coli
T2 sequence (P01116 with tags, fused parts or gaps isoform P01116-2 G12D): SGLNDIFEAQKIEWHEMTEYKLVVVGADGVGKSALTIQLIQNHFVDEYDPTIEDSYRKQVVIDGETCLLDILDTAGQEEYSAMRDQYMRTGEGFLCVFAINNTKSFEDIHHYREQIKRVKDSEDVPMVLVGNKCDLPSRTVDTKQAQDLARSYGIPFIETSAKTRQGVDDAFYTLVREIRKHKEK
Experimental: Biotinylated KRAS wt and KRAS G12DNV proteins were expressed and purified in conditions similar to those previously reported (Tran, et al., 2021) (Zhang, et al., 2020). Briefly, KRAS (1-169) proteins were expressed in E. coli at 18° C. with an upstream TEV cleavage site (ENLFYQS (SEQ ID NO: 6)) followed an Avi tag sequence ([…] (SEQ ID NO: 7)). KRAS expression constructs contained both a His6 (SEQ ID NO: 8) and maltose-binding protein (MBP) tags at the N-terminus for Ni-NTA column purification prior to overnight TEV cleavage and MBP column purification. The avi-tagged NRAS expression construct contained both a His6 tag (SEQ ID NO: 8) and SUMO cleavage sige at the N-terminus for Ni-NTA column purification followed by His-ULPi digestion overnight. All avi-tagged RAS proteins were dialyzed into buffer containing ATP, biotin, and BirA followed by purification over a second Ni-NTA column and then run over a size exclusion HiLoad™ 26/600 Superdex™ column in 20 mM HEPES, pH 7.5, 300 mM NaCl, 5 mM MgCl2, and 1 mM TCEP. Fractions containing the protein of interest were pooled, concentrated, and confirmed by intact mass spectrometry. To prepare ‘GTP’ loaded KRAS and NRAS, biotinylated KRAS or NRAS was nucleotide exchanged from GDP-bound protein to GppNHp-bound (Jena Biosciences, NU-401-50) protein in the presence of alkaline phosphatase and excess GppNHp as previously described and the resulting nucleotide content was confirmed by HPLC reverse phase analytical chromatography (Donohue, et al., 2019) (Tran, et al., 2021).
His-tagged RAF1 (52-131) was similarly expressed in E. coli at 18° C. overnight with an upstream TEV cleavage site. His-tagged RAF1 expression construct contained both a His6 (SEQ ID NO: 8) and MBP tags at the N-terminus for Ni-NTA column purification followed by MBP-tagged TEV digestion overnight. RAF1 protein samples were further purified over a MBP column followed by a Ni-NTA column and a second MBP column. The fractions containing the protein of interest were pooled, concentrated, and further purified over a HiLoad™ 16/600 Superdex™ 75 pg size exclusion column into 20 mM HEPES, pH8.0, 200 mM NaCl, 5 mM TCEP.
When RAS proteins are in the active GTP-bound conformation, they bind the effector protein RAF1 at the N-terminus Ras-binding domain (RBD, residues 52-131) (Tran, et al., 2021). Homogenous time resolved fluorescence (HTRF) was used to monitor the interaction between wt or mutant KRAS and RAF1 or wt NRAS and RAFT. Compounds were assayed in the presence of KRAS G12D/V and RAF1 versus wt KRAS to assess activity against mutant and w.t. KRAS. Similarly, compounds were then assayed in the presence of w.t. NRAS and RAF1 to assess RAS isoform selectivity. In all assay formats, His-tagged RAF1 protein was incubated with the HTRF donor, anti-6His (“6His” disclosed as SEQ ID NO: 8) Tb Cryptate gold (Cisbio 61DB10RDF), and biotinylated RAS proteins were incubated with the HTRF acceptor, streptavidin-d2 (CisBio 610SADLA). The intensity of the fluorescence signal emitted is proportional to binding between the two proteins. The donor solution was prepared by mixing 16 nM His-tagged RAF1 in protein dilution buffer with 1:100 anti-6His (“6His” disclosed as SEQ ID NO: 8) Tb cryptate in PPI-Terbium detection buffer. 16 nM biotinylated RAS protein was diluted into protein dilution buffer (50 mM Tris-HCl pH 7.5, 150 mM NaCl, 0.1 mM MgCl2, 1 mM TCEP, 0.005% Tween20) and mixed with 1:2000 Streptavidin-d2 diluted in PPI-Terbium detection buffer (CisBio 61DBTORDF). 50× compound in DMSO was mixed with 16 nM KRAS-acceptor solution and incubated for 30 minutes at room temperature. After compound pre-incubation with KRAS, the RAF1 donor solution was added to the KRAS-acceptor solution and incubated for 1 hour at room temperature. The fluorescence signal emitted was monitored at 665 nm and 615 nm using an Envision multimode plate reader. […]

| SMILES | IC50 ([1]; Table 2) | IC50 ([1]; Table 4) | IC50 (KRAS G12D/RAF1; Table 2) | IC50 (KRAS G12D/RAF1; Table 4) |
| --- | --- | --- | --- | --- |
| Oc1ccc2c(c1)-c1ccccc1C21CN(c2cc(N3C[C@H]4CC[C@@H](C3)N4)nc(OC[C@@]34CCCN3C[C@H](F)C4)n2)C1 [Compound 1, 1-[6-[(1R,5S)-3,8-diazabicyclo[3.2.1]octan-3-yl]-2-[[(2R,8S)-2-fluoro-1,2,3,5,6,7-hexahydropyrrolizin-8-yl]methoxy]pyrimidin-4-yl]spiro[azetidine-3,9′-fluorene]-3′-ol] | 100 to 1000 nM | 100 to 1000 nM | 10000 to 100000 nM | 10000 to 100000 nM |
| C[C@@]1(O)CCCN(c2nc(OC[C@@]34CCCN3C[C@H](F)C4)nc(N3CC4(CCc5sc(N)c(C#N)c54)C3)c2F)C1 [Compound 6, 2-amino-1′-[5-fluoro-2-[[(2R,8S)-2-fluoro-1,2,3,5,6,7-hexahydropyrrolizin-8-yl]methoxy]-6-[(3R)-3-hydroxy-3-methyl-1-piperidyl]pyrimidin-4-yl]spiro[5,6-dihydrocyclopenta[b]thiophene-4,3′-azetidine]-3-carbonitrile] |  | 100 to 1000 nM |  | 10000 to 100000 nM |
| CO/N=C(\C)c1nn2c(c1Cl)CN(c1nc(OC[C@@]34CCCN3C[C@H](F)C4)nc(N3CC4(CCc5sc(N)c(C#N)c54)C3)c1C#N)CCC2 [Compound 20, 2-amino-1′-[6-[3-chloro-2-[(E)-N-methoxy-C-methyl-carbonimidoyl]-4,6,7,8-tetrahydropyrazolo[1,5-a][1,4]diazepin-5-yl]-5-cyano-2-[[(2R,8S)-2-fluoro-1,2,3,5,6,7-hexahydropyrrolizin-8-yl]methoxy]pyrimidin-4-yl]spiro[5,6-dihydrocyclopenta[b]thiophene-4,3′-azetidine]-3-carbonitrile] |  | < 10 nM |  | 1000 to 10000 nM |
| N#Cc1c(N2C[C@H]3CC[C@@H](C2)N3)nc(OCC2(CN3CCC(F)CC3)CC2)nc1N1CC2(CCc3sc(N)c(C#N)c32)C1 [Compound 28, 2-amino-1′-[5-cyano-6-(3,8-diazabicyclo[3.2.1]octan-3-yl)-2-[[1-[(4-fluoro-1-piperidyl)methyl]cyclopropyl]methoxy]pyrimidin-4-yl]spiro[5,6-dihydrocyclopenta[b]thiophene-4,3′-azetidine]-3-carbonitrile] |  | 10 to 100 nM |  | 100 to 1000 nM |
| N#Cc1c(N2CCC=CCC2)nc(OC[C@@]23CCCN2C[C@H](F)C3)nc1N1CC2(CCc3sc(N)c(C#N)c32)C1 [Compound 31, 2-amino-1′-[5-cyano-2-[[(2R,8S)-2-fluoro-1,2,3,5,6,7-hexahydropyrrolizin-8-yl]methoxy]-6-(2,3,6,7-tetrahydroazepin-1-yl)pyrimidin-4-yl]spiro[5,6-dihydrocyclopenta[b]thiophene-4,3′-azetidine]-3-carbonitrile] |  | 10 to 100 nM |  | 1000 to 10000 nM |
| CN(C)C(=O)c1nn2c(c1Cl)CN(c1nc(OC[C@@]34CCCN3C[C@H](F)C4)nc(N3CC4(C3)c3ccccc3CCC4(F)F)c1C#N)CCC2 [Compound 35, 3-chloro-5-[5-cyano-6-(2′,2′-difluorospiro[azetidine-3,1′-tetralin]-1-yl)-2-[[(2R,8S)-2-fluoro-1,2,3,5,6,7-hexahydropyrrolizin-8-yl]methoxy]pyrimidin-4-yl]-N,N-dimethyl-4,6,7,8-tetrahydropyrazolo[1,5-a][1,4]diazepine-2-carboxamide] |  | 1000 to 20000 nM |  | > 100000 nM |
| CN(C)C(=O)c1nn2c(c1Cl)CN(c1nc(OC[C@@]34CCCN3C[C@H](F)C4)nc(N3CC4(C3)C(=O)CCc3ccccc34)c1C#N)CCC2 [Compound 36, 3-chloro-5-[5-cyano-2-[[(2R,8S)-2-fluoro-1,2,3,5,6,7-hexahydropyrrolizin-8-yl]methoxy]-6-(2′-oxospiro[azetidine-3,1′-tetralin]-1-yl)pyrimidin-4-yl]-N,N-dimethyl-4,6,7,8-tetrahydropyrazolo[1,5-a][1,4]diazepine-2-carboxamide] |  | 1000 to 20000 nM |  | > 100000 nM |
| N#Cc1c(N2C[C@H]3CC[C@@H](C2)N3)nc(OCc2n[nH]cc2C(F)F)nc1N1CC2(CCc3sc(N)c(C#N)c32)C1 [Compound 109, 2-amino-1′-[5-cyano-6-[(1R,5S)-3,8-diazabicyclo[3.2.1]octan-3-yl]-2-[[4-(difluoromethyl)-1H-pyrazol-3-yl]methoxy]pyrimidin-4-yl]spiro[5,6-dihydrocyclopenta[b]thiophene-4,3′-azetidine]-3-carbonitrile] |  | 10 to 100 nM |  |  |
| N#Cc1c(N2CCCOCC2)nc(OC[C@@]23CCCN2C[C@H](F)C3)nc1N1CC2(CCc3sc(N)c(C#N)c32)C1 [Compound 110, 2-amino-1′-[5-cyano-2-[[(2R,8S)-2-fluoro-1,2,3,5,6,7-hexahydropyrrolizin-8-yl]methoxy]-6-(1,4-oxazepan-4-yl)pyrimidin-4-yl]spiro[5,6-dihydrocyclopenta[b]thiophene-4,3′-azetidine]-3-carbonitrile] |  | 10 to 100 nM |  |  |
| N#Cc1c(N2CCSc3ncccc3C2)nc(OC[C@@]23CCCN2C[C@H](F)C3)nc1N1CC2(CCc3sc(N)c(C#N)c32)C1 [Compound 111, 2-amino-1′-[5-cyano-6-(3,5-dihydro-2H-pyrido[3,2-f][1,4]thiazepin-4-yl)-2-[[(2R,8S)-2-fluoro-1,2,3,5,6,7-hexahydropyrrolizin-8-yl]methoxy]pyrimidin-4-yl]spiro[5,6-dihydrocyclopenta[b]thiophene-4,3′-azetidine]-3-carbonitrile] |  | 10 to 100 nM |  |  |
